Experimental data reported in US20240390383A1, “DIOXAZINES AND THEIR USE IN TREATMENT OF GBA-RELATED DISEASES” (ZEVRA DENMARK A/S, priority 2021, published 2024).
Several values for one entry are separate records, joined by “and”; a condition that tells them apart may be missing. Equal entries are not always repeated. Marks after values point to notes of the source that are not given here.

Molecular target: T1, GCase (GBA) in human fibroblast cell line GM10915 harboring the L444P GBA mutation (Homo sapiens, UniProt P04062, L483P)
T1 construct: Human fibroblast cell line GM10915 harboring the L444P GBA mutation; host or cells: GM10915 human fibroblasts
T1 sequence (P04062 40-536 L483P): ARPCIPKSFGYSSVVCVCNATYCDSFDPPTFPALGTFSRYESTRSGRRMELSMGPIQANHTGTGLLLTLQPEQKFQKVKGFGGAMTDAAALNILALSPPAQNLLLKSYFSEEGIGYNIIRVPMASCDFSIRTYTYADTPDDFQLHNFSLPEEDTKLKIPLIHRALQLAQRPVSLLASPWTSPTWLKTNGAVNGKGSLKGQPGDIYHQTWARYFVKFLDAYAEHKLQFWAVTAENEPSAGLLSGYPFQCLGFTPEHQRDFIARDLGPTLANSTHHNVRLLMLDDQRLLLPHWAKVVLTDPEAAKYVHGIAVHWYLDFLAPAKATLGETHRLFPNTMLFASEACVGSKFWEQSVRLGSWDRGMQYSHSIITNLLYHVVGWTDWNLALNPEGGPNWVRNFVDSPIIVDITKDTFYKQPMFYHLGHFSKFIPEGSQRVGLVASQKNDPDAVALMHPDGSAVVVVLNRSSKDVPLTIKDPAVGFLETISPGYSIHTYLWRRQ
Assay: GCase activity assay (4-MUG substrate, normalised to crystal violet staining) in L444P GBA fibroblasts
Type: cell-based
Details: 5 days exposure; for GBA EC1.5: concentration giving 150% GCase activity (1.5-fold induction), 8-point dose range; for Emax / GBA Emax: maximum percent GCase activity relative to untreated cells in the dose range tested
Summary of the method: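 Patient fibroblasts GM10915 (L444P GBA) exposed to compounds for five days over an 8-point range, with fresh dosing every 2–3 days. Intact-cell GCase measured with 2.5 mM 4-MUG at pH 4.0 for 23 h at 37 °C (ex/em 365/445 nm), normalised to crystal violet, as % of PBS basal; Emax is the maximum reached.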

Structure (SMILES)	GBA EC1.5	Emax [%]	GBA Emax
C1CCN(CCC2=NOCC(CN3CCCCC3)O2)CC1 (racemic) [compound 816, rac-3-(2-(piperidin-1-yl)ethyl)-5-(piperidin-1-ylmethyl)-5,6-dihydro-1,4,2-dioxazine]	4 µM	181	
COC1CN(C)CC1C1=NOCC(CN2CCCCC2)O1 (racemic) [compound 821, rac-3-(4-methoxy-1-methylpyrrolidin-3-yl)-5-(piperidin-1-ylmethyl)-5,6-dihydro-1,4,2-dioxazine]	29 µM	213	
CN1CCN(CCC2=NOCC(CN3CCCCC3)O2)CC1 (racemic) [compound 823, rac-3-(2-(4-methylpiperazin-1-yl)ethyl)-5-(piperidin-1-ylmethyl)-5,6-dihydro-1,4,2-dioxazine]	18 µM	312	
CN(C)CC1(C2=NOCC(CN3CCCCC3)O2)CCN(C)C1 (racemic) [compound 826, rac-N,N-dimethyl-1-(1-methyl-3-(5-(piperidin-1-ylmethyl)-5,6-dihydro-1,4,2-dioxazin-3-yl)pyrrolidin-3-yl)methanamine]	7 µM	190	
C1CCN(CC2CON=C([C@]34CNC[C@H]3CCOC4)O2)CC1 (relative stereo) [compound 461, rac-rel-trans-(3aR,7aR)-3a-(5-(piperidin-1-ylmethyl)-5,6-dihydro-1,4,2-dioxazin-3-yl)octahydropyrano[3,4-c]pyrrole]	19 µM	203	
C1CCN(CC2CON=C([C@]34CCN[C@H]3CCOC4)O2)CC1 (relative stereo) [compound 462, rac-rel-trans(3aR,7aS)-3a-(5-(piperidin-1-ylmethyl)-5,6-dihydro-1,4,2-dioxazin-3-yl)octahydropyrano[4,3-b]pyrrole di-2,2,2-trifluoroacetate]	9 µM	241	
C1CCN(CC2CON=C([C@]34CCC[C@H]3NCC4)O2)CC1 (relative stereo) [compound 469, rac-3-rel-trans-((3aS,6aR)-hexahydrocyclopenta[b]pyrrol-3a(1H)-yl)-5-(piperidin-1-ylmethyl)-5,6-dihydro-1,4,2-dioxazine]	5 µM		204%
C[C@@]12CNC[C@]1(C1=NOCC(CN3CCCCC3)O1)C2 (relative stereo) [compound 481, rac-rel-trans-3-((1R,5R)-5-methyl-3-azabicyclo[3.1.0]hexan-1-yl)-5-(piperidin-1-ylmethyl)-5,6-dihydro-1,4,2-dioxazine]	22 µM	174	
C1CCN(CC2CON=C([C@@]34CNC[C@@H]3C4)O2)CC1 (relative stereo) [compound 482, rac-rel-trans-3-((1R,5R)-3-azabicyclo[3.1.0]hexan-1-yl)-5-(piperidin-1-ylmethyl)-5,6-dihydro-1,4,2-dioxazine]	14 µM	268	
C1CCN(CC2CON=C([C@]34CC[C@H]3CNC4)O2)CC1 (relative stereo) [compound 485, rac-rel-trans-3-((1R,5R)-3-azabicyclo[3.2.0]heptan-1-yl)-5-(piperidin-1-ylmethyl)-5,6-dihydro-1,4,2-dioxazine di-2,2,2-trifluoroacetate]	25 µM	174	
C[C@@H]1CNC[C@@]1(C)C1=NOCC(CN2CCCCC2)O1 (relative stereo) [compound 489, rac-rel-cis-3-((3R,4R)-3,4-dimethylpyrrolidin-3-yl)-5-(piperidin-1-ylmethyl)-5,6-dihydro-1,4,2-dioxazine]	29 µM	242	
C1CCN(CC2CON=C([C@]34CNC[C@H]3COC4)O2)CC1 (relative stereo) [compound 494, rac-rel-trans-(3aR,6aR)-3a-(5-(piperidin-1-ylmethyl)-5,6-dihydro-1,4,2-dioxazin-3-yl)hexahydro-1H-furo[3,4-c]pyrrole]	18 µM	307	
C[C@@H]1CNC[C@H]1C1=NOCC(CN2CCCCC2)O1 (relative stereo) [compound 551, rac-rel-trans-3-((3R,4R)-4-methylpyrrolidin-3-yl)-5-(piperidin-1-ylmethyl)-5,6-dihydro-1,4,2-dioxazine]	14 µM	185	
CN(C)[C@H]1CC[C@@H](C2=NOCC(CN3CCCCC3)O2)CC1 (relative stereo) [compound 569, rac-rel-cis-(1S,4S)—N,N-dimethyl-4-(5-(piperidin-1-ylmethyl)-5,6-dihydro-1,4,2-dioxazin-3-yl)cyclohexan-1-amine]	7 µM	187	
C1CCN(CC2CON=C([C@]34CCC[C@H]3NCC4)O2)CC1 (relative stereo) [compound 584, rac-rel-trans-3-((3aS,6aR)-hexahydrocyclopenta[b]pyrrol-3a(1H)-yl)-5-(piperidin-1-ylmethyl)-5,6-dihydro-1,4,2-dioxazine]	10 µM and 5 µM		253% and 204%
C1CCN(C[C@@H]2CON=C([C@]34CCC[C@H]3NCC4)O2)CC1 (relative stereo) [compound 589, (rel-R)-3-((rel-trans-3aS,6aR)-hexahydrocyclopenta[b]pyrrol-3a(1H)-yl)-5-(piperidin-1-ylmethyl)-5,6-dihydro-1,4,2-dioxazine]	4 µM and 5 µM		216% and 272%
CN1C[C@@H](O)C[C@H](C2=NOCC(CN3CCCCC3)O2)C1 (relative stereo) [compound 724, rac-rel-(3R,5R)-1-methyl-5-(5-(piperidin-1-ylmethyl)-5,6-dihydro-1,4,2-dioxazin-3-yl)piperidin-3-ol]	16 µM	274	
CN(C)C(=O)[C@@]12CC[C@]1(C1=NOCC(CN3CCCCC3)O1)CNC2 (relative stereo) [compound 765, rac-rel-(1R,5S)—N,N-dimethyl-5-(5-(piperidin-1-ylmethyl)-5,6-dihydro-1,4,2-dioxazin-3-yl)-3-azabicyclo[3.2.0]heptane-1-carboxamide]	29 µM	151	
CC1(C2=NOCC(CN3CCCCC3)O2)CCNCC1 (single isomer, unassigned) [compound 567]	7 µM	296	

Structure (SMILES)	GBA EC1.5	Emax [%]	GBA Emax
C1CCN(C[C@@H]2CON=C([C@]34CCC[C@H]3NCC4)O2)CC1 (single isomer, unassigned) [compound 590]	4 µM and 3 µM		211% and 273%
Nc1c(Br)cc(Br)cc1CN[C@H]1CC[C@H](O)CC1 [Ambroxol, reference compound]	>20* *The 1.5-fold induction criteria was not reached within the tested concentration range μM		
CCCCCO[C@H]1CC[C@H](NC(=O)c2cnn3c(C)cc(C)nc23)CC1 [LTI-291, reference compound]	112 µM		
Cn1ncc(CC2(C3=NOCC(CN4CCCCC4)O3)CCNCC2)n1 (stereo not drawn) [compound 507]	35 µM	149	
Cc1cncc(CC2(C3=NOCC(CN4CCCCC4)O3)CCNCC2)c1 (stereo not drawn) [compound 520]	13 µM	136	
CC(C)c1ccc(CC2(C3=NOCC(CN4CCCCC4)O3)CCNCC2)cn1 (stereo not drawn) [compound 538]	1 µM	147	
CN(C)c1ccc(CC2(C3=NOCC(CN4CCCCC4)O3)CCNCC2)cn1 (stereo not drawn) [compound 543]	3 µM	138	
COc1ncc(CC2(C3=NOCC(CN4CCCCC4)O3)CCNCC2)cc1Cl (stereo not drawn) [compound 545]	1 µM	140	
c1cncc(CC2(C3=NOCC(CN4CCCCC4)O3)CCOCC2)c1 (stereo not drawn) [compound 552]	50 µM	115	
CN1CC[C@@H]2CN(CC3CON=C(C4(C)CCNCC4)O3)C[C@@H]21 (stereo partly drawn) [compound 555]	50 µM	114	
F[C@H]1CN[C@H](C2=NOCC(CN3CCCCC3)O2)C1 (stereo partly drawn) [compound 556]	50 µM	114	
N[C@@H]1CN[C@@H](C2=NOCC(CN3CCCCC3)O2)C1 (stereo partly drawn) [compound 557]	50 µM	115	
C1CCN(CC2CON=C([C@]34CCC[C@H]3NCC4)O2)CC1 (stereo partly drawn) [compound 558]	4 µM	225	
N[C@H]1CN[C@@H](C2=NOCC(CN3CCCCC3)O2)C1 (stereo partly drawn) [compound 564]	50 µM	104	
FC(F)(F)CN1CCCC(C2=NOCC(CN3CCCCC3)O2)C1 (stereo not drawn) [compound 570]	50 µM	107	
CN1CC2(C1)CN(CC1CON=C(C3(C)CCNCC3)O1)C2 (stereo not drawn) [compound 580]	50 µM	105	
Cn1cnc(CC2(C3=NOCC(CN4CCCCC4)O3)CCNCC2)c1 (stereo not drawn) [compound 582]	50 µM	114	
FC(F)(F)CN1CCCC(CC2=NOCC(CN3CCCCC3)O2)C1 (stereo not drawn) [compound 587]	50 µM	100	
